# Measurements from US11059800B2, “Dehydroleucodine derivatives and uses thereof” (Bioventures, LLC, priority 2013, dated 2021).
# “Also recorded” adds a separate entry of the source.
# Key:
# CCRF-CEM = experiment: Single dose tumor cell growth inhibition, Leukemia CCRF-CEM; assay type: cell-based; settings: single dose 10 μM
# From the text: (§1) DHL is cytotoxic to various leukemia, colon cancer, CNS cancer and prostate cancer cell lines.
# [1] = test system: normal bone marrow and peripheral blood mononuclear cells; settings: 20 μM, 48 hours, AML n=8 vs normal n=4, Mann-Whitney p=0.004
# Description: The cells were seeded into 96-well plates and kept at a concentration of 0.5 million cells per mL. The samples were treated with DHL, Leucodine, DHL-Morpholine, DHL-Proline, DHL-Piperidine, and PTL at varying concentrations in triplicates. Cell viability was determined after incubating for 48 hours. The cells were stained with annexin V-fluorescein isothiocyanate or phycoeritrine (FITC/PE) and 7-aminoactinomycin (7-AAD) to detect phosphatidylserine exposition and cell permeability, respectively. At least 50,000 events were recorded per condition on either an LSR-II or LSR-Fortessa flow cytometer (BD Biosciences). Data analysis was conducted using FlowJo 9.6 software for Mac OS X (TreeStar). Cells that were negative for annexin V and 7-AAD were scored as viable.
# TUR = experiment: Cytotoxicity, annexin V/7-AAD viability by flow cytometry, TUR; assay type: cell-based, human; settings: 48 hours, drug range tested 1.25-160 μM
# Description: (§2) In order to assess the structure-activity relationship of DHL and its derivatives, DHL and its derivatives were evaluated against eight human leukemia cell lines. Cell lines were cultured in Iscove's Modified Dulbecco's Medium (IMDM) supplemented with 10%˜20% fetal bovine serum (FBS) according to culture conditions indicated by ATCC and 1% penicillin/streptomycin (Pen/Strep) at 37° C. and 5% CO2. The cells were seeded into 96-well plates and kept at a concentration of 0.5 million cells per mL. The samples were treated with DHL, Leucodine, DHL-Morpholine, DHL-Proline, DHL-Piperidine, and PTL at varying concentrations in triplicates. Cell viability was determined after incubating for 48 hours. The cells were stained with annexin V-fluorescein isothiocyanate or phycoeritrine (FITC/PE) and 7-aminoactinomycin (7-AAD) to detect phosphatidylserine exposition and cell permeability, respectively. At least 50,000 events were recorded per condition on either an LSR-II or LSR-Fortessa flow cytometer (BD Biosciences). Data analysis was conducted using FlowJo 9.6 software for Mac OS X (TreeStar). Cells that were negative for annexin V and 7-AAD were scored as viable.
# NF-κB = experiment: Quantitative PCR of NF-κB transcript in MOLM-13 and MV-411 cells; assay type: cell-based; settings: 20 μM, 6 hours
# Description: (§3) (FIG. 8A) Graphical representation of the fold changes of HMOX-1 in MOLM-13 cells. Cells were seeded at 0.5 million cells per milliliter and subject to 20 μM of DHL, leucodine, DHL-proline, DHL-piperidine, DHL-morpholine, or parthenolide for 6 hours. RNA was then extracted and quantitative PCR was performed. Experiments were performed in triplicates. Lines represent mean for each specimen, with error bars representing the SD. Fold change was calculated by the delta-delta Ct method. […] (FIG. 8D) Immunoblot for MOLM-13 cells after 6 hours of treatment with either DHL or PTL with 10 or 20 μM. Blot was probed for phospho-p65 and p65 antibodies. Total p65 is shown as the loading control.
# To compare these intracellular effects of DHL and its derivatives, quantitative PCR was performed (FIG. 8 and FIG. 9). MOLM-13 or MV-411 cells were seeded at 0.5 million cells per milliliter. Cells were treated for 6 hours with 20 μM of DHL, Leucodine, DHL-Morpholine, DHL-Proline, DHL-Piperidine or PTL, and then collected. […] Quantitative PCR was performed using probes for HMOX-1 (Hs01110251_m1), HSPA1A (Hs00359163_s1), and NFKB1 (Hs00765730_m1). […] Single-plex real-time PCR was performed in triplicates in a StepOne plus RealTime PCR system and analyzed with the StepOne Software. Fold change was calculated using the 2-DDCT method described by Livak and Schmittgen.
# MV4-11 = experiment: Cytotoxicity, annexin V/7-AAD viability by flow cytometry, MV4-11; assay type: cell-based, human; settings: MV4-11, 48 hours, drug range tested 1.25-160 μM
# Description: as §2
# SW-620 = experiment: Single dose tumor cell growth inhibition, Colon Cancer SW-620; assay type: cell-based, human; settings: SW-620, single dose 10 μM
# From the text: as §1
# HMOX-1, HSPA1A, HSPH1 = experiment: Real-time PCR gene expression in KG-1 and MOLM-13 cells; assay type: cell-based; settings: 20 μM, 6 hours
# From the text: FIG. 1A, FIG. 1B, FIG. 1C, FIG. 1D and FIG. 1E present the changes in gene expression in KG1 or MOLM13 cells after exposure to dehydroleucodine, parthenolide, or derivatives thereof. Plotted is the fold change in expression relative to control after treatment with parthenolide-tyramine (PTL-Tyr), parthenolide (PTL), leucodine (Leuco), dehydroleucodine (DHL), dehydroleucodine-tyramine (DHL-Tyr), or dehydroleucodine-morpholine (DHL-Morp). […] FIG. 1B plots the expression of HSPA1A in KG1 cells. FIG. 1C presents the expression of HSPH1 in KG1 cells. […] FIG. 1E presents the expression of HSPH1 in MOLM13 cells. Error bars represent S.E.M.
# MOLM-13 and KG-1 cells were seeded at 0.5 million cells per ml. Cells were treated for 6 hours with 20 μM of parthenolide (PTL), dehydroleucodine (DHL), leucodine (Leu), parthenolide-tyramine (PTL-Tyr), dehydroleucodine-tyramine (DHL-Tyr) and dehydroleucodine-Morpholine (DHL-Morp), and then collected. Total RNA was extracted using the Qiashredder and Qiagen Rneasy mini kits (Quiagen) according to the manufacturer's instructions. Real-time PCR was performed using the Taqman RNA to CT 1-Step kit (Applied Biosystems). […] Single-plex real-time PCR was performed in triplicates in a StepOne plus RealTime PCR system (Applied Biosystems) and analyzed with the StepOne Software. Fold change was calculated using the 2-DDCT method.
# DU-145 = experiment: Single dose tumor cell growth inhibition, Prostate Cancer DU-145; assay type: cell-based, human; settings: DU-145, single dose 10 μM
# From the text: as §1
# phospho-p65 = experiment: Western blot of phospho-p65 and total p65 in MOLM-13 cells; assay type: cell-based; settings: 10 or 20 μM, 6 hours
# Description: as §3
structure (smiles),measurement,setting,value
"C=C1C(=O)O[C@@H]2[C@H]3C(C)=CC(=O)C3=C(C)CC[C@@H]12 [DHL, dehydroleucodine]",Percent inhibition,CCRF-CEM,44.9%
same,potency to AML cell lines versus normal mononuclear cells,[1],significantly more potent to the AML cell lines
same,LD50,TUR,12.18 µM
same,NF-κB transcript levels,NF-κB,slightly downregulated
same,LD50,MV4-11,5.02 µM
same,Percent inhibition,SW-620,30.0%
same,"expression of HMOX-1, HSPA1A and HSPH1","HMOX-1, HSPA1A, HSPH1",activated the expression of all three target genes in both cell lines; also recorded: more potent than PTL
same,Percent inhibition,DU-145,44.0%
same,phospho-p65 level by Western blot,phospho-p65,significant decrease
